Experimental data taken from paper PMC7869652 (Invertebrate neuroscience : IN, 2019).
Where two headings read alike, the source gives them in different places.

How the values were obtained:
Assay type in all cases: cell-based
Aca-ACR-16 [1] = molecular target: T1, Aca-ACR-16 (Ancylostoma caninum, UniProt A0A5C1L5J1); assay: two-electrode voltage clamp, Xenopus oocytes, peak current
T1 sequence (A0A5C1L5J1 21-497): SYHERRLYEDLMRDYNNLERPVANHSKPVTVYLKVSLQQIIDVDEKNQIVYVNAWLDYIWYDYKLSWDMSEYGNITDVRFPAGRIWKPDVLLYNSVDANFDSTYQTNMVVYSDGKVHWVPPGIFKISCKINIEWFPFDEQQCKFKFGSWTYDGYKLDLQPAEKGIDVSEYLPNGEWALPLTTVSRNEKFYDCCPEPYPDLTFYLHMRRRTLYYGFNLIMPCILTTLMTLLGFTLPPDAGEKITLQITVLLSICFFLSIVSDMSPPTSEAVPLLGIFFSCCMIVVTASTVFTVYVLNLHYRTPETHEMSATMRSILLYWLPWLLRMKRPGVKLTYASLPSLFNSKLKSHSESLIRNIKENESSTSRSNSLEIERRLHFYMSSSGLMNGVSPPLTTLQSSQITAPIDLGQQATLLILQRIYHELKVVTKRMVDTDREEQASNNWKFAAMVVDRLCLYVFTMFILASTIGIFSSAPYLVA

Aca-ACR-16 [2] = molecular target: T1, Aca-ACR-16; assay: two-electrode voltage clamp, Xenopus oocytes, inhibition of ACh current; conditions: read-out: % inhibition at 10 μM
Aca-ACR-16 [3] = molecular target: T1, Aca-ACR-16; assay: as above; conditions: read-out: % inhibition at 10 μM; remark: listed apart in the source
Aca-ACR-16 [4] = molecular target: T1, Aca-ACR-16; assay: two-electrode voltage clamp, Xenopus oocytes, peak current; conditions: agonist; 10 s application; co-expressed with Asu-RIC-3

Compound	inhibition at 10 µM (Aca-ACR-16 [2]) [%]	other results
CC(=O)OCC[N+](C)(C)C [acetylcholine]		EC50 (Aca-ACR-16 [1]): 50 µM
COc1cc2c3cc1Oc1cc(ccc1O)C[C@@H]1c4c(cc(OC)c(O)c4Oc4ccc(cc4)C[C@@H]3N(C)CC2)CC[N+]1(C)C [d-tubocurarine]	100 ± 0.1	
CN1C(=O)[C@]23C[C@H]4C(C)(C)[C@]5(CNc6c5ccc5c6OC=CC(C)(C)O5)C[C@@]41CN2CC[C@@]3(C)O [derquantel]	72 ± 5.6	
CO[C@H]1CC=C2CCN3CCC4=C(CC(=O)OC4)[C@]23C1 [dihydro-β-erythroidine]		inhibition at 10 µM (Aca-ACR-16 [3]): 98.8 ± 0.4%
Clc1ccc(C2CC3CCC2N3)cn1 (stereo not drawn) [epibatidine]		% of 100 μM ACh current at 100 μM (Aca-ACR-16 [4]): 85.0 ± 4.0%
CNC1(C)C2CCC(C2)C1(C)C (stereo not drawn) [mecamylamine]	98.8 ± 0.6	
